This passage reports inhibition and Inhibition of edema results from patent US4557871A, “Novel styrene derivatives of the general formula” (Taisho Pharmaceutical Co., Ltd., priority 1983, dated 1985).

Like-named read-outs stand apart in the source and are kept apart here.

The subject of experiment [1] is edema in left hind paw. In words: Carrageenin-induced hind paw edema in rats, test compound orally 1 hour before (Winter's method), anti-inflammatory activity. In kind it is in vivo, Male Wistar rats. To be noted: 6 mg/kg oral, one hour before carrageenin, paw volume 3 hours after carrageenin. The procedure:
Anti-inflammatory activity was evaluated by the Winter's method [Journal of Pharmacology and Experimental Therapeutics, volume 141, page 369(1963)]. Male Wistar rats (group of 6 animals) were administered orally the test compounds (dose: 6 mg/kg) one hour before inducing the edema in left hind paw with 0.1 ml of a 1% carrageenin-saline suspension. Volumes of the hind paws were determined with a volume meter 3 hours after the injection of carrageenin. Indomethacin (Control 1) and 4-vinylphenylacetic acid (Control 2) were used as controls.

Experiment [2] deals with edema in left hind paw. In words: Duration of inhibition of carrageenin-induced hind paw edema, test compound orally 1, 24 or 48 hours before inducing the edema. In kind it is in vivo, Male Wistar rats. To be noted: Rattus norvegicus; for inhibition at 30 mg/kg: dose 30 mg/kg oral; for inhibition at 1.5 mg/kg: dose 1.5 mg/kg oral. The procedure:
Anti-inflammatory activity was evaluated by the Winter's method [Journal of Pharmacology and Experimental Therapeutics, volume 141, page 369(1963)]. […] Volumes of the hind paws were determined with a volume meter 3 hours after the injection of carrageenin. Indomethacin (Control 1) and 4-vinylphenylacetic acid (Control 2) were used as controls.
Following a procedure similar to that of Test example 1, the test compounds were administered orally to the rats 1, 24 or 48 hours before inducing the edema, and there was obtained a result shown in Table 2.

Setting [3] is: 1 hr before inducing edema, read-out: Inhibition of edema, 1 hr.
Where [4] appears, read: 24 hrs before inducing edema, read-out: Inhibition of edema, 24 hrs.
[5] abbreviates: 48 hrs before inducing edema, read-out: Inhibition of edema, 48 hrs.

As for `C=Cc1ccc(CC(=O)O)cc1` [Control 2, 4-vinylphenylacetic acid], the inhibition at 6 mg/kg with edema in left hind paw [1] (Rattus norvegicus, po, read-out: Inhibition of edema) turned out to be 15.7%. For the same compound, the inhibition at 30 mg/kg in the experiment with edema in left hind paw [2] (setting [3]) was 40.2%; in the experiment on edema in left hind paw [2] (setting [4]) it was 1.3%; with edema in left hind paw [2] (setting [5]), -3.5%.
In the experiment with edema in left hind paw [1], `CC(C(=O)O)c1ccc(C=C(Cl)Cl)cc1` (centres unmarked) [ST-1, 2-[4-(2,2-dichlorovinyl)phenyl]propionic acid] came in with an Inhibition of edema of 66.1%. Also, the values for the inhibition at 1.5 mg/kg in the experiment on edema in left hind paw [2] (setting [3]), in the experiment on edema in left hind paw [2] (setting [4]) and in the experiment with edema in left hind paw [2] (setting [5]) were 42.6%, 31.1% and 25.3%, respectively.
